US10981900B2, “Spiro compound and use thereof” (MEDSHINE DISCOVERY INC., priority 2017, dated 2021)
Read-outs that look alike come from different tables or passages of the source.

Experiments:
[1] = Evaluation of compounds' pharmacokinetics in SD rats in vivo (intravenous injection and oral administration); parameters: species or system Sprague Dawley rats; details: single intravenous injection and oral administration; for AUC: read-out: Concentration integral AUC; for half-life: read-out: Half life T1/2 (converted); for bioavailability: oral, read-out: Bioavailability F
Protocol: Objective: To test the pharmacokinetics of compounds in SD rats in vivo.
Sprague Dawley rats (male, 200-300 g, 7-9 weeks old, Shanghai Slack)
The pharmacokinetics profile of the compound in rodent after intravenous injection and oral administrations was tested using a standard protocol. In the assay, the candidate compound was formulated into a clear solution, and was given to the rats through a single intravenous injection and oral administration. The vehicles for the intravenous injection and oral administration were an aqueous hydroxypropyl β-cyclodextrin solution or dimethyl sulfoxide in aqueous PEG400 solution in a proper proportion. The whole blood samples were collected within 24 hours, centrifuged at 3000 g for 15 minutes, and plasma samples were obtained by separating the supernatant. 4 times volume of acetonitrile solution containing an internal standard was added to precipitate proteins. After centrifugation, the supernatant was collected, to which an equal volume of water was added, and further centrifuged to collect the supernatant. The LC-MS/MS method was used to quantitatively analyze the plasma concentration, and the pharmacokinetics parameters, such as peak concentration, peak time, clearance rate, half-life, area under the curve, and bioavailability were calculated.

S1P1 receptor = molecular target: T1, S1P1 receptor (Homo sapiens, UniProt P21453); experiment: S1P1 receptor agonistic activity assay (PathHunter cell strain, chemiluminescent signal detection); format: cell-based; details: PathHunter cells, agonist mode, 37° C. for 90-180 minutes
T1 construct: expressed in transfected cells
Protocol: 1. A PathHunter cell strain was thawed according to standard procedures;
2. The cell was seeded in 20 μl 384-well microplates and incubated at 37° C. for an appropriate time.
1. For an agonist assay, the cell was incubated with the sample to be tested to initiate a reaction;
2. The stock to be tested is diluted 5 folds to be a buffer solution;
3. The 5-fold diluted solution (5 μL) was added to the cells and incubated at 37° C. for 90-180 minutes. The solvent concentration was 1%.
1. 12.5 μL or 15 μL of PathHunter detection reagent (50 vol. %) was added in one portion and then incubated for 1 hour at room temperature to generate a detection signal;
2. The microplate was read using a PerkinElmer Envision™ instrument for chemiluminescent signal detection.
1. Compound activity analysis was performed using a CBIS Data Analysis Kit;
2. Calculation formula: % activity=100%×(average RLU of sample to be test-average RLU of solvents)/(average maximum control ligand−average RLU of solvents)

[2] = male, Sprague-Dawley, rat, plasma, 3 mg/kg, 3 mpk
[3] = male, Sprague-Dawley, rat, plasma, intravenous, 3 mg/kg, 3 mpk, read-out: Clearance
[4] = male, Sprague-Dawley, rat, plasma, 2 mg/kg, 2 mpk

T1 sequence (P21453 whole entry): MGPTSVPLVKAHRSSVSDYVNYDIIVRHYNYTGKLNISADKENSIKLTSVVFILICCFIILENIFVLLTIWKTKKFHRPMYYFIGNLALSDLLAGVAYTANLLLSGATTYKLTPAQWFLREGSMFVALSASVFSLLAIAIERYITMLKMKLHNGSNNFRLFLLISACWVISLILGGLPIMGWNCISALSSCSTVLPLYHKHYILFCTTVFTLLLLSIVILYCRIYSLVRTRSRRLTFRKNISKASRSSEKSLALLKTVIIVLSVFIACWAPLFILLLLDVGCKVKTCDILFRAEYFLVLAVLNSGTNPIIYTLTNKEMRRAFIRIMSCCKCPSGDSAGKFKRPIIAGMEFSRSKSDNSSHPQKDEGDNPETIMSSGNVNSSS

| SMILES | EC50 (S1P1 receptor) | also measured |
| --- | --- | --- |
| CC(C)Oc1ccc(-c2nc(-c3cccc4c3CCC43CC(=O)N(CCO)C3)no2)cc1C#N (single isomer, unassigned) [Example 21 isomer 1] | ≤ 10 nM | AUC [1, 2]: 12.6 µM·h; half-life [1, 2]: 3.02 h; clearance [1, 3]: 8.65 mL/min/kg; bioavailability [1, 2]: 100% |
| CC(C)Oc1ccc(-c2nc(-c3cccc4c3CCC43CC(=O)N(CCO)C3)no2)cc1C#N (single isomer, unassigned) [Example 21 isomer 2] |  | Bioavailability F ([1]; 3 mpk, 3 mg/kg): 89.6%; Concentration integral AUC ([1]; 3 mpk, 3 mg/kg): 8.483 µM·h; Half life T1/2 ([1]; 3 mpk, 3 mg/kg): 3.22 h; clearance ([1]; 3 mpk, 3 mg/kg): 11.6 mL/min/kg |
| CC(C)Oc1ccc(-c2nc(-c3cccc4c3CCC43CCN(C4CC(C(=O)O)C4)C3)no2)cc1C#N (single isomer, unassigned) [Example 47 Isomer 3] |  | Bioavailability F ([1]; 3 mpk, 3 mg/kg): 48.7%; AUC [1, 2]: 5.66 µM·h; half-life [1, 2]: 3.98 h; clearance [1, 3]: 8.81 mL/min/kg |
| CC(C)Oc1ccc(-c2nc(-c3cccc4c3CCC43CCN(C4CC(C(=O)O)C4)C3)no2)cc1C#N (single isomer, unassigned) [Example 47 Isomer 4] |  | Bioavailability F ([1]; 3 mpk, 3 mg/kg): 89.6%; Concentration integral AUC ([1]; 3 mpk, 3 mg/kg): 8.483 µM·h; Half life T1/2 ([1]; 3 mpk, 3 mg/kg): 3.22 h; clearance ([1]; 3 mpk, 3 mg/kg): 11.6 mL/min/kg |
| O=C1CC2(CCc3c(-c4noc(-c5ccc(Cl)cc5)n4)cccc32)CN1CCO (stereo not drawn) [Example 1] | > 100 nM |  |
| O=C1CC2(CCc3c(-c4noc(-c5cccc(Cl)c5)n4)cccc32)CN1CCO (stereo not drawn) [Example 2] | > 100 nM |  |
| O=C1CC2(CCc3c(-c4noc(-c5ccccc5Cl)n4)cccc32)CN1CCO (stereo not drawn) [Example 3] | > 100 nM |  |
| COc1ccc(-c2nc(-c3cccc4c3CCC43CC(=O)N(CCO)C3)no2)cc1 (stereo not drawn) [Example 4] | > 100 nM |  |
| COc1cccc(-c2nc(-c3cccc4c3CCC43CC(=O)N(CCO)C3)no2)c1 (stereo not drawn) [Example 5] | > 100 nM |  |
| COc1ccccc1-c1nc(-c2cccc3c2CCC32CC(=O)N(CCO)C2)no1 (stereo not drawn) [Example 6] | > 100 nM |  |
| N#Cc1ccc(-c2nc(-c3cccc4c3CCC43CC(=O)N(CCO)C3)no2)cc1 (stereo not drawn) [Example 7] | > 100 nM |  |
| N#Cc1cccc(-c2nc(-c3cccc4c3CCC43CC(=O)N(CCO)C3)no2)c1 (stereo not drawn) [Example 8] | > 100 nM |  |
| CC(C)Oc1ccc(-c2nc(-c3cccc4c3CCC43CC(=O)N(CCO)C3)no2)cc1C(F)F (stereo not drawn) [Example 9] | ≤ 10 nM | AUC [1, 4]: 4.35 µM·h; half-life [1, 4]: 99.3 h; clearance ([1]; male, Sprague-Dawley, rat, plasma, intravenous, 2 mg/kg, 2 mpk, read-out: Clearance): 2.52 mL/min/kg; bioavailability [1, 4]: 89.4% |
| CC(C)Oc1ccc(-c2nc(-c3cccc4c3CCC43CC(=O)N(CCO)C3)no2)cc1OC(F)F (stereo not drawn) [Example 10] | ≤ 10 nM |  |
| CC(C)Oc1ccc(-c2nc(-c3cccc4c3CCC43CC(=O)N(CCO)C3)no2)cc1Cl (stereo not drawn) [Example 11] | ≤ 10 nM |  |
| CC(C)Oc1ccc(-c2nc(-c3cccc4c3CCC43CC(=O)N(CCO)C3)no2)c(C#N)c1 (stereo not drawn) [Example 12] | > 100 nM |  |
| CC(C)Oc1ccc(-c2nc(-c3cccc4c3CCC43CC(=O)N(CCO)C3)no2)cc1 (stereo not drawn) [Example 13] | > 100 nM |  |
| O=C1CC2(CCc3c(-c4noc(-c5ccc(OC(F)(F)F)cc5)n4)cccc32)CN1CCO (stereo not drawn) [Example 14] | > 100 nM |  |
| O=C1CC2(CCc3c(-c4noc(-c5ccc(OC(F)F)cc5)n4)cccc32)CN1CCO (stereo not drawn) [Example 15] | > 100 nM |  |
| Cc1ccc(-c2nc(-c3cccc4c3CCC43CC(=O)N(CCO)C3)no2)cc1 (stereo not drawn) [Example 16] | > 100 nM |  |
| CC(C)c1ccc(-c2nc(-c3cccc4c3CCC43CC(=O)N(CCO)C3)no2)cc1 (stereo not drawn) [Example 17] | > 100 nM |  |
| N#Cc1ccccc1-c1nc(-c2cccc3c2CCC32CC(=O)N(CCO)C2)no1 (stereo not drawn) [Example 18] | > 100 nM |  |
| O=C1CC2(CCc3c(-c4noc(-c5ccc(OCC6CC6)cc5)n4)cccc32)CN1CCO (stereo not drawn) [Example 19] | > 100 nM |  |
| CC(C)Nc1ncc(-c2nc(-c3cccc4c3CCC43CC(=O)N(CCO)C3)no2)cc1Br (stereo not drawn) [Example 20] | 10 to 100 nM |  |
| CC(C)Oc1ccc(-c2nc(-c3cccc4c3CC[C@@H]4NCCO)no2)cc1C#N [Ozanimod, reference compound] |  | AUC [1, 2]: 1.12 µM·h; half-life [1, 2]: 5.24 h; clearance [1, 3]: 46.3 mL/min/kg; bioavailability [1, 2]: 41.6% |

Further lines, with some results ahead:

| EC50 (S1P1 receptor) | SMILES | also measured |
| --- | --- | --- |
| ≤ 10 nM | CC(C)Oc1ccc(-c2nc(-c3cccc4c3CCC43CC(=O)N(CCO)C3)no2)cc1C#N (stereo not drawn) [Example 21 mixture] |  |
| ≤ 10 nM | CC(C)Oc1ccc(-c2nc(-c3cccc4c3CCC43CC(=O)N(CCO)C3)no2)cc1Br (stereo not drawn) [Example 22] |  |
| 10 to 100 nM | CC(C)Oc1ccc(-c2nc(-c3cccc4c3CCC43CC(=O)N(CCO)C3)no2)cc1S(C)(=O)=O (stereo not drawn) [Example 23] |  |
| ≤ 10 nM | COCCN1CC2(CCc3c(-c4noc(-c5ccc(OC(C)C)c(C#N)c5)n4)cccc32)CC1=O (stereo not drawn) [Example 24] |  |
| ≤ 10 nM | CC(C)Oc1ccc(-c2nc(-c3cccc4c3CCC43CC(=O)N(CCS(C)(=O)=O)C3)no2)cc1C#N (stereo not drawn) [Example 25] |  |
| ≤ 10 nM | CC(C)Oc1ccc(-c2nc(-c3cccc4c3CCC43CC(=O)N(CC(=O)N(C)C)C3)no2)cc1C#N (stereo not drawn) [Example 26] |  |
| 10 to 100 nM | CC(C)Oc1ccc(-c2nc(-c3cccc4c3CCC43CC(=O)N(CCN(C)C)C3)no2)cc1C#N (stereo not drawn) [Example 27] |  |
| ≤ 10 nM | CC(C)Oc1ccc(-c2nc(-c3cccc4c3CCC43CC(=O)N(CC(=O)O)C3)no2)cc1C#N (stereo not drawn) [Example 28] |  |
| ≤ 10 nM | CC(C)Oc1ccc(-c2nc(-c3cccc4c3CCC43CC(=O)N(CCCCC(=O)O)C3)no2)cc1C#N (stereo not drawn) [Example 29] |  |
| 10 to 100 nM | CC(C)Oc1ccc(-c2nc(-c3cccc4c3CCC43CCN(CCO)C3=O)no2)cc1C#N (stereo not drawn) [Example 30] |  |
| 10 to 100 nM | CC(C)Oc1ccc(-c2nc(-c3cccc4c3CCC43CCC(=O)N3CCO)no2)cc1C#N (stereo not drawn) [Example 31] |  |
| 10 to 100 nM | CC(C)Oc1ccc(-c2nc(-c3cccc4c3CCC43CCC(CO)N3)no2)cc1C#N (stereo not drawn) [Example 32] |  |
| ≤ 10 nM | CC(C)Oc1ccc(-c2nc(-c3cccc4c3CCCC43CC(=O)N(CCO)C3)no2)cc1C#N (stereo not drawn) [Example 33] |  |
| ≤ 10 nM | CC(C)Oc1ccc(-c2nc(-c3cccc4c3CCC43CCC(=O)N(CCO)C3)no2)cc1C#N (stereo not drawn) [Example 34] |  |
| ≤ 10 nM | CC(C)Oc1ccc(-c2nc(-c3cccc4c3CCC43CCN(CCO)C3)no2)cc1C#N (stereo not drawn) [Example 35] |  |
| ≤ 10 nM | CC(C)Oc1ccc(-c2nc(-c3cccc4c3CCC43CC(=O)N(CCO)C3=O)no2)cc1C#N (stereo not drawn) [Example 36] |  |
| 10 to 100 nM | CC(C)Oc1ccc(-c2nc(-c3cccc4c3CCC43COC(=O)N3CCO)no2)cc1C#N (stereo not drawn) [Example 37] |  |
| ≤ 10 nM | CC(C)Oc1ccc(-c2nnc(-c3cccc4c3CCC43CC(=O)N(CCO)C3)s2)cc1C#N (stereo not drawn) [Example 38] |  |
| 10 to 100 nM | CC(C)Oc1ccc(-c2nsc(-c3cccc4c3CCC43CC(=O)N(CCO)C3)n2)cc1C#N (stereo not drawn) [Example 39] |  |
| ≤ 10 nM | CC(C)Oc1ccc(-c2nc(-c3cccc4c3CCC43CC(=O)N(CCO)C3)ns2)cc1C#N (stereo not drawn) [Example 40] |  |
| ≤ 10 nM | CC(C)Oc1ccc(-c2ncc(-c3cccc4c3CCC43CC(=O)N(CCO)C3)s2)cc1C#N (stereo not drawn) [Example 41] |  |
| 10 to 100 nM | CC(C)Oc1ccc(-c2ncc(-c3cccc4c3CCC43CC(=O)N(CCO)C3)o2)cc1C#N (stereo not drawn) [Example 42] |  |
| 10 to 100 nM | CC(C)Oc1ccc(-c2ccc(-c3cccc4c3CCC43CC(=O)N(CCO)C3)s2)cc1C#N (stereo not drawn) [Example 43] |  |
| ≤ 10 nM | CC(C)Oc1ccc(-c2ncc(-c3cccc4c3CCC43CC(=O)N(CCO)C3)cn2)cc1C#N (stereo not drawn) [Example 44] |  |
| ≤ 10 nM | CC(C)Oc1ccc(-c2cnc(-c3cccc4c3CCC43CC(=O)N(CCO)C3)cn2)cc1C#N (stereo not drawn) [Example 45] |  |
| ≤ 10 nM | CC(C)Oc1ccc(-c2nc(-c3cccc4c3CCC43CCN(C4CC(C(=O)O)C4)C3)no2)cc1C#N (stereo not drawn) [Example 47] |  |
| ≤ 10 nM | CC(C)Oc1ccc(-c2nc(-c3cccc4c3CCC43CCN(CC(=O)O)C3)no2)cc1C#N (stereo not drawn) [Example 48] |  |
